Results as given in the supplement of paper PMC10307832.

What was measured:
Assay in all cases: relative viability (nuclei count vs DMSO), 5 days (fraction); higher = more cells survive
BMX-IN-1 + Olaparib = compound: C=CC(=O)Nc1cc(-n2c(=O)ccc3cnc4ccc(-c5ccc(NS(C)(=O)=O)cc5)cc4c32)ccc1C [BMX-IN-1] + O=C(c1cc(Cc2n[nH]c(=O)c3ccccc23)ccc1F)N1CCN(C(=O)C2CC2)CC1 [Olaparib] (partner 8 µM)
In short: (§1)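 Lung cancer cell lines in 1536-well plates got either a single drug or a fixed anchor-drug dose together with five library-drug doses (not always all listed) in √10 steps, by pin tool, on the day after seeding. Nuclei were counted after 5 days, and relative viability is the treated-to-vehicle ratio of nuclei counts. Values are medians of duplicate plates.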

PAC-1 + Olaparib = compound: C=CCc1cccc(/C=N/NC(=O)CN2CCN(Cc3ccccc3)CC2)c1O [PAC-1] + O=C(c1cc(Cc2n[nH]c(=O)c3ccccc23)ccc1F)N1CCN(C(=O)C2CC2)CC1 [Olaparib] (partner 8 µM)
In short: as §1

PAC-1 + Pictilisib = compound: C=CCc1cccc(/C=N/NC(=O)CN2CCN(Cc3ccccc3)CC2)c1O [PAC-1] + CS(=O)(=O)N1CCN(Cc2cc3nc(-c4cccc5[nH]ncc45)nc(N4CCOCC4)c3s2)CC1 [Pictilisib] (partner 1 µM)
In short: as §1

Ibrutinib + Lapatinib = compound: C=CC(=O)N1CCC[C@@H](n2nc(-c3ccc(Oc4ccccc4)cc3)c3c(N)ncnc32)C1 [Ibrutinib] + CS(=O)(=O)CCNCc1ccc(-c2ccc3ncnc(Nc4ccc(OCc5cccc(F)c5)c(Cl)c4)c3c2)o1 [Lapatinib] (partner 2 µM)
In short: as §1

Cell Line | relative viability (BMX-IN-1 + Olaparib; first compound 0.02 µM) | relative viability (BMX-IN-1 + Olaparib; first compound 0.2 µM) | relative viability (BMX-IN-1 + Olaparib; first compound 0.6325 µM) | relative viability (BMX-IN-1 + Olaparib; first compound 2 µM) | relative viability (PAC-1 + Olaparib; first compound 0.02 µM) | relative viability (PAC-1 + Olaparib; first compound 0.06325 µM) | relative viability (PAC-1 + Olaparib; first compound 0.2 µM) | relative viability (PAC-1 + Olaparib; first compound 2 µM) | relative viability (PAC-1 + Pictilisib; first compound 0.02 µM) | relative viability (PAC-1 + Pictilisib; first compound 0.06325 µM) | relative viability (PAC-1 + Pictilisib; first compound 0.2 µM) | relative viability (PAC-1 + Pictilisib; first compound 2 µM) | relative viability (Ibrutinib + Lapatinib; first compound 0.005 µM) | relative viability (Ibrutinib + Lapatinib; first compound 0.01581 µM) | relative viability (Ibrutinib + Lapatinib; first compound 0.05 µM) | relative viability (Ibrutinib + Lapatinib; first compound 0.1581 µM) | relative viability (Ibrutinib + Lapatinib; first compound 0.5 µM)
NCI-H2228 | 0.768 | 0.835 | 0.667 | 0.784 | 0.619 | 0.607 | 0.619 | 0.646 | 0.42 | 0.507 | 0.397 | 0.362 | 0.746 | 0.974 | 0.833 | 0.884 | 1.1
NCI-H2347 | 0.523 | 0.603 | 0.597 | 0.573 | 0.544 | 0.622 | 0.551 | 0.515 | 0.51 | 0.723 | 0.604 | 0.591 | 0.962 | 0.899 | 0.897 | 0.555 | 0.861
NCI-H2405 | 0.958 | 0.958 | 0.977 | 0.865 | 0.879 | 0.894 | 0.922 | 0.94 | 0.44 | 0.455 | 0.45 | 0.376 | 0.942 | 1.08 | 0.973 |  | 1.09
NCI-H3122 | 0.678 | 0.781 | 0.672 | 0.64 | 0.635 | 0.634 | 0.624 | 0.566 | 0.611 | 0.564 | 0.645 | 0.566 | 0.953 | 1.03 | 1.04 | 0.948 | 0.99
PC-3 [JPC-3] | 1.25 | 1.46 | 1.06 | 1.1 | 1.04 | 1.15 | 1.1 | 1.09 | 0.736 | 0.77 | 0.732 | 0.787 | 0.389 | 0.45 | 0.439 | 0.413 | 0.444
PC-14 | 0.265 | 0.265 | 0.297 | 0.266 | 0.255 | 0.275 | 0.288 | 0.298 | 0.667 | 0.681 | 0.623 | 0.677 | 0.308 | 0.302 | 0.285 | 0.322 | 0.327
RERF-LC-KJ | 0.968 | 1.09 | 1.06 | 0.923 | 0.891 | 0.86 | 0.929 | 0.83 | 0.553 | 0.471 | 0.423 | 0.552 | 0.831 | 0.931 | 0.937 | 0.888 | 0.785
SK-LU-1 | 0.491 | 0.403 | 0.516 | 0.506 | 0.405 | 0.465 | 0.455 | 0.414 | 0.557 | 0.607 | 0.457 | 0.512 | 0.88 | 0.76 | 0.838 | 0.937 | 0.905
SW 1573 | 0.592 | 0.49 | 0.433 | 0.343 | 0.446 | 0.426 | 0.442 | 0.41 | 0.475 | 0.448 | 0.394 | 0.457 | 1.01 | 1.22 | 1.3 | 1 | 1.22
UMC-11 | 0.402 | 0.389 | 0.364 | 0.364 | 0.411 | 0.366 | 0.366 | 0.377 | 0.843 | 0.783 | 0.754 | 0.815 | 0.545 | 0.978 | 1.1 | 0.87 | 0.907
